From ChEMBL document CHEMBL3351853, “Discovery of small molecular inhibitors targeting HIV-1 gp120-CD4 interaction drived from BMS-378806” (Eur J Med Chem, 2014)

Experiment: Inhibition of HIV-1 gp120/CD4 interaction

EC50: 4 nM
Structure (SMILES): C[C@@H]1CN(C(=O)c2ccccc2)CCN1C(=O)C(=O)c1c[nH]c2ccccc12
